# Read-outs that look alike come from different tables or passages of the source.
# Columns and labels:
# Assay type in all cases: binding
# [1] = biological target: T1, HeLa cell extract proteins (Homo sapiens, UniProt P17812)
# T1 construct: endogenous in cells; host or cells: HeLa cell extract
# T1 sequence (P17812 1-591): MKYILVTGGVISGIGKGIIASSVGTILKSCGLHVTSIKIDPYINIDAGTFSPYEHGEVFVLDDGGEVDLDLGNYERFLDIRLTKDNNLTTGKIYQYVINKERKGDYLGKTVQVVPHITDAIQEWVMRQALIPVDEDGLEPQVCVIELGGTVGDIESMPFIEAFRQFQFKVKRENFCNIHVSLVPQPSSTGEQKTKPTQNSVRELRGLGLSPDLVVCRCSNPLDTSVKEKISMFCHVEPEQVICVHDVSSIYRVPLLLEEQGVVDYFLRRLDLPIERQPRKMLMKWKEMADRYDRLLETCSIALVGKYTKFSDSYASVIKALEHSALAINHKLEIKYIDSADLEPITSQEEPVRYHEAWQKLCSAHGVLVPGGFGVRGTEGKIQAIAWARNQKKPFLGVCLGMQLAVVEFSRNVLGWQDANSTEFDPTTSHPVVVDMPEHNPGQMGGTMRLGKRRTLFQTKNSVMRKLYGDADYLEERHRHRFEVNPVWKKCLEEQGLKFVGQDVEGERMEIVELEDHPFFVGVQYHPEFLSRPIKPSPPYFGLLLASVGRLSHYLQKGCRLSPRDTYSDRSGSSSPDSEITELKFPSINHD
# [2] = biological target: T2, HeLa cell extract proteins (Homo sapiens, UniProt Q9HAV4)
# T2 construct: endogenous in cells; host or cells: HeLa cell extract
# T2 sequence (Q9HAV4 1-1204): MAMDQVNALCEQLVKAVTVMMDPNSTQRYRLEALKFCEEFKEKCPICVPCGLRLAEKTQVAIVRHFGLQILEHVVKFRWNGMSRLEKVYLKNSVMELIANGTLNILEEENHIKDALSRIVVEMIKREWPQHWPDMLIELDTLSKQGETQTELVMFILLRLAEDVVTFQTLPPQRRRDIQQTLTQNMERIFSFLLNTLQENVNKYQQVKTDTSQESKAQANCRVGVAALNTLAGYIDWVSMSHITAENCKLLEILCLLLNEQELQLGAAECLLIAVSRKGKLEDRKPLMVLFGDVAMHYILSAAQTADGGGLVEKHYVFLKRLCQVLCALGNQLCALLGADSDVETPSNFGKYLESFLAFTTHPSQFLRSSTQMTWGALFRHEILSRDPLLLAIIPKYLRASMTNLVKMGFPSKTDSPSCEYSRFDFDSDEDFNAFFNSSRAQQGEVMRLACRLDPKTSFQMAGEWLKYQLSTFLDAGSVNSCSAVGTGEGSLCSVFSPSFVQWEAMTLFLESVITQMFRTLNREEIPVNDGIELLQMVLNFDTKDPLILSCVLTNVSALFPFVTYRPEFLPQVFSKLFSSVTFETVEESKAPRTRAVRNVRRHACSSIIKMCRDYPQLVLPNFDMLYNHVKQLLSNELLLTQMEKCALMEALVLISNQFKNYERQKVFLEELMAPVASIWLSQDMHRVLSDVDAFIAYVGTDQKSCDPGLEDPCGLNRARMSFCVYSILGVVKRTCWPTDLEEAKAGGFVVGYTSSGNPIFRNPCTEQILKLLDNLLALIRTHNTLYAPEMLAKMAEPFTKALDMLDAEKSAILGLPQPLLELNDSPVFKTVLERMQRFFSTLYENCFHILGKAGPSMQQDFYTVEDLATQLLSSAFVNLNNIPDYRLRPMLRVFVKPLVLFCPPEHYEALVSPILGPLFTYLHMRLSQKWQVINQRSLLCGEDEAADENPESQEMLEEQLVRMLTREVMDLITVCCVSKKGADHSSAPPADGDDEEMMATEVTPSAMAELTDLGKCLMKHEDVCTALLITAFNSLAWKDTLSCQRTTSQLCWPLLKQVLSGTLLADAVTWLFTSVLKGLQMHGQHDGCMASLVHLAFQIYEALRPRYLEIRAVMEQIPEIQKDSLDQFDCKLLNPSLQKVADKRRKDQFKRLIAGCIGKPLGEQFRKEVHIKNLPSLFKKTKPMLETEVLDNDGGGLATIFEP
# [3] = biological target: T3, HeLa cell extract proteins (Homo sapiens, UniProt O75340)
# T3 construct: endogenous in cells; host or cells: HeLa cell extract
# T3 sequence (O75340 whole entry): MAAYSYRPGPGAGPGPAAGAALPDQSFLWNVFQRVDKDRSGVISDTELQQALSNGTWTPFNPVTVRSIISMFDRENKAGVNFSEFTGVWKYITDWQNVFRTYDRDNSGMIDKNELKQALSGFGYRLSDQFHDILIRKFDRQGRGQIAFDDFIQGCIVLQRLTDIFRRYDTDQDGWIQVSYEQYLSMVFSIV
# [4] = biological target: T4, HeLa cell extract proteins (Homo sapiens, UniProt Q16831)
# T4 construct: endogenous in cells; host or cells: HeLa cell extract
# T4 sequence (Q16831 whole entry): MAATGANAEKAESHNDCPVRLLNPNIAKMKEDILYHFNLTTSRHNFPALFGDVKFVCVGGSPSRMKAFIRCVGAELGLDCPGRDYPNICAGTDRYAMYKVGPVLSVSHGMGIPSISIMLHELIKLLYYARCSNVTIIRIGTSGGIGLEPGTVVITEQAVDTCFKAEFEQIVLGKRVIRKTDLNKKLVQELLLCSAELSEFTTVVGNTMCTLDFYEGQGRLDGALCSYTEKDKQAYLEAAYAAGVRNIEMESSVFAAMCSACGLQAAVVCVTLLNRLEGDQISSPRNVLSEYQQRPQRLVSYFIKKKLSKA
# [5] = biological target: T5, HeLa cell extract proteins (Homo sapiens, UniProt P14324)
# T5 construct: endogenous in cells; host or cells: HeLa cell extract
# T5 sequence (P14324 1-419): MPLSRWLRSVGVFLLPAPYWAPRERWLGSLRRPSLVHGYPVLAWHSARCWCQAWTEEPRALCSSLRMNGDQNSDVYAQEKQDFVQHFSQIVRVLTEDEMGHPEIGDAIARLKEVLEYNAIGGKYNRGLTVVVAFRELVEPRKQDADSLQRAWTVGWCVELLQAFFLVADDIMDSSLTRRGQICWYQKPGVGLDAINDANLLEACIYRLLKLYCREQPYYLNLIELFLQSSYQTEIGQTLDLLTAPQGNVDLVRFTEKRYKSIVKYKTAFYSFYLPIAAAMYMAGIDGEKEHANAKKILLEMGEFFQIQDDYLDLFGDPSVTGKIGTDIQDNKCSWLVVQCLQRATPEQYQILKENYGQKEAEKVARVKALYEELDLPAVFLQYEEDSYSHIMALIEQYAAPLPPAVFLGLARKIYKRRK
# [6] = HeLa, protein PDCD6 (PROGRAMMED CELL DEATH PROTEIN 6)
# [7] = HeLa, protein UPP1 (ISOFORM 1 OF URIDINE PHOSPHORYLASE 1)
SMILES,"fold changes relative to vehicle control ([1]; HeLa, protein CTPS)","fold changes relative to vehicle control ([2]; protein XPO5, HeLa)","fold changes relative to vehicle control [3, 6]","fold changes relative to vehicle control [4, 7]","fold changes relative to vehicle control ([5]; HeLa, captured protein FDPS)",fold changes relative to vehicle control [1],fold changes relative to vehicle control [2],fold changes relative to vehicle control [3],fold changes relative to vehicle control [4],fold changes relative to vehicle control [5],"fold changes relative to vehicle control ([2]; HeLa, protein XPO5)","fold changes relative to vehicle control ([3]; HeLa, protein PDCD6)","fold changes relative to vehicle control ([4]; HeLa, protein UPP1)","fold changes relative to vehicle control ([5]; protein FDPS, HeLa)"
"Nc1nc2c(c(=O)[nH]1)N(C=O)C(CNc1ccc(C(=O)N[C@@H](CCC(=O)O)C(=O)O)cc1)CN2 (some centres unmarked) [LEU, leucovorin]",0.93,0.86,1.14,1.01,1.05,,,,,,,,,
"Nc1nc2[nH]cc(CCc3ccc(C(=O)N[C@@H](CCC(=O)O)C(=O)O)cc3)c2c(=O)[nH]1 [PTX, pemetrexed]",,,,,,0.85,0.92,1.06,1.11,1.08,,,,
CCCCCCOc1ccc(Cc2cnc(N)nc2N)cc1 [compound 1],0.99,,,,,,,,,,1,1.03,0.88,1.17
CCCCCCOc1cccc(Cc2cnc(N)nc2N)c1 [compound 2],1.09,,,,,,,,,,1.18,0.92,1.16,2.08
Nc1nc2cccc(-c3ccccc3)c2n1Cc1ccc(Cl)c(Cl)c1 [compound 3],0.95,,,,,,,,,,1.1,1.07,1.05,0.87
NCCOCCOCC(=O)Nc1nc2ncc(CNc3ccc(C(=O)NC(CCC(=O)O)C(=O)O)cc3)nc2c(=O)[nH]1 (centres unmarked) [compound 6],0.95,1.02,0.98,0.44,1.29,,,,,,,,,
NCCCNc1ccc(C(=O)NC(CCC(=O)O)C(=O)O)cc1 (centres unmarked) [compound 7],0.98,0.98,1.05,0.96,0.97,,,,,,,,,

# — paper PMC6199744, “Development of Chemical Proteomics for the Folateome and Analysis of the Kinetoplastid Folateome” (ACS Infectious Diseases, 2018)
